Measured values from patent publication US20080160552A1, “Methods and Compounds for Treating Inflammation” (priority 2006, published 2008).

System: HPAE cells
Assay: Transendothelial electrical resistance (TER) measurement after thrombin
Assay type: cell-based, Human
Conditions: pretreated with 1 uM Go6976 for 30 min, 50 nM thrombin
Excerpt: FIG. 7. Effects of C1-S96A mutant on MLC phosphorylation, actin stress fiber formation, and loss of endothelial barrier function in response to thrombin. A-B, MLC phosphorylation in response to thrombin in cells transfected with C1 or C1-S96A-GDI-1 mutant. Cells were stimulated with thrombin for indicated time and lysates were Western blotted with anti-phospho-MLC (top) or anti-GFP Abs to determine MLC phosphorylation. […] C, Actin stress fiber formation in response to thrombin in cells transducing GFP-tagged C1 or GFP-tagged C1-S96A mutant. Cells were stimulated with thrombin for 5 min and fixed followed by staining with Alexa-labeled phallodin to determine actin stress fiber formation by confocal imaging. […] TER values are calculated as change in resistance over the value at time zero (n=7). […] After 30 hrs cells were pretreated with 1 uM Go6976 to inhibit PKCα for 30 min and changes in transendothelial electrical resistance (TER) after addition of 50 nM thrombin were determined. TER values are calculated as change in resistance over the value at time zero (n=8). […]
Transendothelial resistance measurement: The time course of endothelial cell retraction in real time, a measure of increased endothelial permeability, was measured according to the procedure described previously (16, 23).

For `Cn1c2ccccc2c2c3c(c4c5ccccc5n(CCC#N)c4c21)CNC3=O` [G66976], the “thrombin-induced decrease in TER” value (HPAE cells transducing C1-GDI-1 mutant) was “significantly reduced” and the “thrombin-induced decrease in TER” value (HPAE cells transducing S91A (S96A) GDI-1 mutant) was “not seen”.
